Data from patent US20240116985A1, “STAPLED PEPTIDES AND METHODS THEREOF” (priority 2020, published 2024).
Values after ≈ are worked out from the molar mass of the structure shown. Read-outs that look alike come from different tables or passages of the source.

Assays:
CHI Log D procedure = type: physicochemical; details: pH 7.4, CHI Log D
[1] = molecular target: T1, beta-catenin/TCF4 engagement (Homo sapiens, UniProt P35222); test: Nano-BRET target engagement assay (B-cat-Halo & TCF4-Luc in HEK293 cells); type: cell-based
T1 construct: expressed in transfected cells; host or cells: HEK293
T1 sequence (P35222 1-781): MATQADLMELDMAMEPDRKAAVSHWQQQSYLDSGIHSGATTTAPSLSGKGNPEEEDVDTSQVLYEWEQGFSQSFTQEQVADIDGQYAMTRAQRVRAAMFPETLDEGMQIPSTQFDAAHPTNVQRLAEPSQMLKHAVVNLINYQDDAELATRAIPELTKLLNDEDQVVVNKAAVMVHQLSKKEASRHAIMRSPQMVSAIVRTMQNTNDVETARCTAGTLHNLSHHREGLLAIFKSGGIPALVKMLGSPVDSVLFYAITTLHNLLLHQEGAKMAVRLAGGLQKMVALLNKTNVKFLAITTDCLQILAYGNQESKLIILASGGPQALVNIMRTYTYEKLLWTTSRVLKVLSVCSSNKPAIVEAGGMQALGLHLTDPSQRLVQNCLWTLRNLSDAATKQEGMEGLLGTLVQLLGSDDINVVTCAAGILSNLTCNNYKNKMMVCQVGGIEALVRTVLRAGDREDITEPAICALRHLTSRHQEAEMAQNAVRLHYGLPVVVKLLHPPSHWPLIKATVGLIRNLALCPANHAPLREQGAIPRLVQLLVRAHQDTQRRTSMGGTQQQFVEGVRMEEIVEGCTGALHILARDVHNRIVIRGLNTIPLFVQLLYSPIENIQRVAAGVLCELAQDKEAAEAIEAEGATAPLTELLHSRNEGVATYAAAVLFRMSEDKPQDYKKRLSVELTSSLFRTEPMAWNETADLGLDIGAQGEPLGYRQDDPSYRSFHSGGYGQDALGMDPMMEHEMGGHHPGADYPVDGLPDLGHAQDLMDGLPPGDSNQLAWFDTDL

Solubility in PBS = type: physicochemical
Method in brief: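 Steps: ultracentrifuge the peptide PBS solution, inject the supernatant on HPLC, inject a 50 μM peptide DMSO solution as reference, then calculate solubility as area ratio (PBS/DMSO) × 50 uM.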

[2] = molecular target: T2, full-length beta-Catenin (Uniprot ID P35222) (Homo sapiens, UniProt P35222); test: Fluorescence polarization IC50 (beta-catenin / 5FAM-TCF4 10-53 competition); type: binding; details: read-out: beta-Catenin FP IC50
T2 construct: 10 nM full-length beta-Catenin (Uniprot ID P35222)
T2 sequence (P35222 1-781): T1 sequence (P35222 1-781)

chromatographic logD (CHI Log D procedure)	IC50 ([1]; read-out: NanoBRET Abs IC50) [nM]	Solubility (Solubility in PBS; Solubility (uM)) [µM]	IC50 [2] [nM]	logD (CHI Log D procedure)	Solubility (Solubility in PBS) [µM]	IC50 ([1]; read-out: NanoBRET IC50) [nM]	solubility at 15 min (Solubility in PBS; Solubility (uM)) [µM]	Structure (SMILES)
2.54	> 20000	18 (≈ 32.5 µg/mL)	34					CC(=O)N1CCC[C@]12CC=CCCCC1(CCCC=CCCCOC(=O)N3CC[C@@](C(=O)N[C@@H](Cc4ccsc4)C(=O)N[C@@H](Cc4csc5ccccc45)C(N)=O)(C3)NC(=O)[C@H](CC(N)=O)NC(=O)[C@H](Cc3ccccc3)NC(=O)[C@H](C)NC(=O)[C@H](C)NC(=O)[C@H](CCC(N)=O)NC(=O)[C@H](CC(=O)O)NC1=O)NC(=O)[C@H](CC(C)(C)C)NC(=O)[C@H](CC(=O)O)NC2=O (stereo partly drawn) [I-858, Ac-PL3-Asp-Npg-B5-Asp-Gln-Ala-Ala-Phe-Asn-PyrS2-3Thi-BztA-NH2]
	> 20000		22	2.28	10 (≈ 18.1 µg/mL)			CC(=O)N1CCC[C@]12CC=CCCCC1(CCCC=CCCCOC(=O)N3CC[C@@](C(=O)N[C@@H](Cc4ccsc4)C(=O)N[C@@H](Cc4csc5ccccc45)C(N)=O)(C3)NC(=O)[C@H](CC(N)=O)NC(=O)[C@H](Cc3ccccc3)NC(=O)[C@H](C)NC(=O)[C@H](C)NC(=O)[C@H](Cc3c[nH]cn3)NC(=O)[C@H](CC(=O)O)NC1=O)NC(=O)[C@H](CC(C)(C)C)NC(=O)[C@H](CC(=O)O)NC2=O (stereo partly drawn) [I-863, Ac-PL3-Asp-Npg-B5-Asp-His-Ala-Ala-Phe-Asn-PyrS2-3Thi-BztA-NH2]
2.62	40000		12		10 (≈ 19.4 µg/mL)	29100		CC(=O)N1CCC[C@]12CC=CCCCC1(CCCC=CCCCOC(=O)N3CC[C@@](C(=O)N[C@@H](Cc4ccsc4)C(=O)N[C@@H](Cc4csc5ccccc45)C(=O)N[C@@H](CCC(N)=O)C(N)=O)(C3)NC(=O)[C@H](CC(N)=O)NC(=O)[C@H](Cc3ccccc3)NC(=O)[C@H](C)NC(=O)[C@H](C)NC(=O)[C@H](Cc3c[nH]cn3)NC(=O)[C@H](CC(=O)O)NC1=O)NC(=O)[C@H](CC(C)(C)C)NC(=O)[C@H](CC(=O)O)NC2=O (stereo partly drawn) [I-864, Ac-PL3-Asp-Npg-B5-Asp-His-Ala-Ala-Phe-Asn-PyrS2-3Thi-BztA-Gln-NH2]
2.11	> 20000	34 (≈ 73.4 µg/mL)	14					CC(=O)N1CCC[C@]12CC=CCCCC1(CCCC=CCCCOC(=O)N3CC[C@@](C(=O)N[C@@H](Cc4ccsc4)C(=O)N[C@@H](Cc4csc5ccccc45)C(=O)N[C@@H](CCC(N)=O)C(N)=O)(C3)NC(=O)[C@H](CC(N)=O)NC(=O)[C@H](Cc3ccccc3)NC(=O)[C@H](CCCCNC(=O)CCc3cccc4ccccc34)NC(=O)[C@H](C)NC(=O)[C@H](CC(=O)O)NC(=O)[C@H](CC(=O)O)NC1=O)NC(=O)[C@H](CC(C)(C)C)NC(=O)[C@H](CC(=O)O)NC2=O (stereo partly drawn) [I-884, Ac-PL3-Asp-Npg-B5-Asp-Asp-Ala-[1NapPr]Lys-Phe-Asn-PyrS2-3Thi-BztA-Gln-NH2]
2.39	> 20000	43 (≈ 93.9 µg/mL)	32					CC(=O)N1CCC[C@]12CC=CCCCC1(CCCC=CCCCOC(=O)N3CC[C@@](C(=O)N[C@@H](Cc4ccsc4)C(=O)N[C@@H](Cc4csc5ccccc45)C(=O)N[C@@H](CCC(N)=O)C(N)=O)(C3)NC(=O)[C@H](CC(N)=O)NC(=O)[C@H](Cc3ccccc3)NC(=O)[C@H](CCCCNC(=O)C(C)(c3ccccc3)c3ccccc3)NC(=O)[C@H](C)NC(=O)[C@H](CC(=O)O)NC(=O)[C@H](CC(=O)O)NC1=O)NC(=O)[C@H](CC(C)(C)C)NC(=O)[C@H](CC(=O)O)NC2=O (stereo partly drawn) [I-885, Ac-PL3-Asp-Npg-B5-Asp-Asp-Ala-[22PhPr]Lys-Phe-Asn-PyrS2-3Thi-BztA-Gln-NH2]
1.51	> 20000	43 (≈ 90.4 µg/mL)	22					CC(=O)N1CCC[C@]12CC=CCCCC1(CCCC=CCCCOC(=O)N3CC[C@@](C(=O)N[C@@H](Cc4ccsc4)C(=O)N[C@@H](Cc4csc5ccccc45)C(=O)N[C@@H](CCC(N)=O)C(N)=O)(C3)NC(=O)[C@H](CC(N)=O)NC(=O)[C@H](Cc3ccccc3)NC(=O)[C@H](CCCCNC(=O)CN3CCOCC3)NC(=O)[C@H](C)NC(=O)[C@H](CC(=O)O)NC(=O)[C@H](CC(=O)O)NC1=O)NC(=O)[C@H](CC(C)(C)C)NC(=O)[C@H](CC(=O)O)NC2=O (stereo partly drawn) [I-886, Ac-PL3-Asp-Npg-B5-Asp-Asp-Ala-[MorphAc]Lys-Phe-Asn-PyrS2-3Thi-BztA-Gln-NH2]
1.37	> 20000	46 (≈ 97.3 µg/mL)	14					CC(=O)N1CCC[C@]12CC=CCCCC1(CCCC=CCCCOC(=O)N3CC[C@@](C(=O)N[C@@H](Cc4ccsc4)C(=O)N[C@@H](Cc4csc5ccccc45)C(=O)N[C@@H](CCC(N)=O)C(N)=O)(C3)NC(=O)[C@H](CC(N)=O)NC(=O)[C@H](Cc3ccccc3)NC(=O)[C@H](CCCCNC(=O)CN3CCN(C)CC3)NC(=O)[C@H](C)NC(=O)[C@H](CC(=O)O)NC(=O)[C@H](CC(=O)O)NC1=O)NC(=O)[C@H](CC(C)(C)C)NC(=O)[C@H](CC(=O)O)NC2=O (stereo partly drawn) [I-887, Ac-PL3-Asp-Npg-B5-Asp-Asp-Ala-[MePipAc]Lys-Phe-Asn-PyrS2-3Thi-BztA-Gln-NH2]
1.49	> 20000		16				41 (≈ 89.9 µg/mL)	CC(=O)N1CCC[C@]12CC=CCCCC1(CCCC=CCCCOC(=O)N3CC[C@@](C(=O)N[C@@H](Cc4ccsc4)C(=O)N[C@@H](Cc4csc5ccccc45)C(=O)N[C@@H](CCC(N)=O)C(N)=O)(C3)NC(=O)[C@H](CC(N)=O)NC(=O)[C@H](Cc3ccccc3)NC(=O)[C@H](CCCCNC(=O)c3ccc(CN4CCN(C)CC4)cc3)NC(=O)[C@H](C)NC(=O)[C@H](CC(=O)O)NC(=O)[C@H](CC(=O)O)NC1=O)NC(=O)[C@H](CC(C)(C)C)NC(=O)[C@H](CC(=O)O)NC2=O (stereo partly drawn) [I-889, Ac-PL3-Asp-Npg-B5-Asp-Asp-Ala-[4MePipBz]Lys-Phe-Asn-PyrS2-3Thi-BztA-Gln-NH2]
1.67	> 20000	40 (≈ 87.1 µg/mL)	16					CC(=O)N1CCC[C@]12CC=CCCCC1(CCCC=CCCCOC(=O)N3CC[C@@](C(=O)N[C@@H](Cc4ccsc4)C(=O)N[C@@H](Cc4csc5ccccc45)C(=O)N[C@@H](CCC(N)=O)C(N)=O)(C3)NC(=O)[C@H](CC(N)=O)NC(=O)[C@H](Cc3ccccc3)NC(=O)[C@H](CCCCNC(=O)c3ccc(CN4CCOCC4)cc3)NC(=O)[C@H](C)NC(=O)[C@H](CC(=O)O)NC(=O)[C@H](CC(=O)O)NC1=O)NC(=O)[C@H](CC(C)(C)C)NC(=O)[C@H](CC(=O)O)NC2=O (stereo partly drawn) [I-890, Ac-PL3-Asp-Npg-B5-Asp-Asp-Ala-[MeMorphBz]Lys-Phe-Asn-PyrS2-3Thi-BztA-Gln-NH2]
1.45	> 20000	31 (≈ 70.7 µg/mL)	14					COCCOCCOCCOCCOCCOCCC(=O)NCCCC[C@@H]1NC(=O)[C@H](C)NC(=O)[C@H](CC(=O)O)NC(=O)[C@H](CC(=O)O)NC(=O)C2(CCCC=CCCCOC(=O)N3CC[C@@](C(=O)N[C@@H](Cc4ccsc4)C(=O)N[C@@H](Cc4csc5ccccc45)C(=O)N[C@@H](CCC(N)=O)C(N)=O)(C3)NC(=O)[C@H](CC(N)=O)NC(=O)[C@H](Cc3ccccc3)NC1=O)CCCC=CC[C@]1(CCCN1C(C)=O)C(=O)N[C@@H](CC(=O)O)C(=O)N[C@@H](CC(C)(C)C)C(=O)N2 (stereo partly drawn) [I-895, Ac-PL3-Asp-Npg-B5-Asp-Asp-Ala-[mPEG6]Lys-Phe-Asn-PyrS2-3Thi-BztA-Gln-NH2]
